Experimental data taken from patent US20210299150A1, “AP39 IMPACT ON MITOCHONDRIA, METABOLISM, GENE TRANSCRIPTION REGULATION, CARDIOTOXICITY PROTECTION AND CANCER TREATMENT” (priority 2020, published 2021).

What was measured:
[1] = test system: A549 lung cancer cells; assay: Cell viability of A549 lung cancer cells; type: cell-based
Procedure: Methods for cell viability: Cells were plated in 96 wells/6 wells cell culture plates. After 24 hrs of plating, the treatments (added in the growth medium) were conducted. The following assays were performed after 24 hrs of the treatments (day 2). (FIGS. 15A, 17-20, 24-27)
MTT assay methods. For the MTT assay, […] of 5 mg/ml MTT-tetrazolium salts in PBS was added to each well containing the growth medium. After 3 hours of incubation, the medium was removed and the formazan crystals were dissolved by adding DMSO. The absorption of the formazan solution was measured using a spectrophotometer at a wavelength of 570 nm. FIGS. 15B, 21-22.
A549 lung cancer cells were exposed to control, AP39 (AP) at 40 or 60 μM, Doxorubicin at 2.5 or 20 μM, thiolactate at 10 mM, AP39 and Doxorubicin, AP39 and thiolactate, or Doxorubicin and Thiolactate. […] FIGS. 19 and 21.

[2] = test system: H9C2 cells; assay: Mitochondrial H2S levels (AzMAC) and morphology (mitotracker Red) in H9C2 cells; type: cell-based, Rat
Source text: Note that white arrow heads and yellow arrows compare and contrast no-H2S: fusion and H2S-presence: fission scenarios in the same image AP39 treatment lane.
Mitochondrial fission was correlated with H2S levels. To investigate the impact of Dox on mitochondrial biogenesis and mitochondrial H2S levels, H9C2 cells were used in combination with H2S sensitive dye AzMAC and mitotracker Red dye as reported previously^8. […] Further, H2S levels (yellow arrows) highly correlated with a dotted appearance of mitochondria, implying that H2S causes mitochondrial fission, which is a prerequisite for eliminating damaged mitochondria^49.

[3] = test system: cleaved caspase 3 and PARP, phospho ERK1/2 and phospho p38; assay: Western blot of apoptotic markers and stress signaling in H9C2; type: cell-based, Rat; details: H9C2, AP39 with Dox vs Dox only
Procedure: AP39 treatment also ameliorated Dox toxicity in a model of Rat cardiomyoblast cell line, H9C2. […] There was a narrow window of protection, as 30 μM and 50 μm doses were not as strong as the 40 μM dose (FIGS. 5A and B) in conferring protection. […] Note that Dox caused an apoptotic phenotype in correlation with ROS levels (FIG. 5F, Dox lane). This in vitro AP39 protection is modest when compared to the in vivo scenario. This difference may be due to rapid clearance of toxic metabolites (for instance, higher lactate production, FIG. 10D) and better oxygen supply (AP39 stimulated OCR, FIG. 7C) in vivo and lack of such sophistication in vitro.

[4] = test system: AMPK, Opa1; assay: Western blot of AMPK activation and Opa1 isoforms; type: cell-based; details: after AP39 treatment
Source text: AP39 enhanced AMPK activation and produced shorter isoform of Opa1, i.e. no longer isoform of Opa1. Note AMPK substrate ACC phosphorylation
Mitochondrial energy efficiency is regulated through accumulation of the shorter form of Opa1 after AP39 treatment. […] Thus, AP39 treatment led to mitochondrial fission, better quality control through increased mitophagy (increased AMPK activation) and energetic efficiency (short form of Opa1), which were all needed to eliminate Dox damaged mitochondria and to halt the functional decline. Apart from its role in mitophagy and quality control, AMPK activation also induces transcription of nuclear encoded mitochondrial resident proteins.

[5] = test system: DIC in mouse models; assay: Dox-induced cardiotoxicity (DIC) in mouse models: heart weight, echocardiography, histology; type: in vivo
Procedure: AP39 treatment ameliorated DIC in mouse models in a dose dependent manner. DIC was induced by giving a single dose of Dox i.p. (FIG. 3A) as reported before^48. AP39 was given for six consecutive days starting with Dox treatment. two different doses of AP39 were tested.
AP39 ameliorated cardiac fibrosis in a dose dependent manner. […] It is possible that lower doses of AP39 might have induced favorable metabolic changes which are enough to improve heart function but not sufficient to protect from cardiac cell death after Dox. These findings needs to be confirmed in a larger study.

`O=C(CCCCCCCCC[P+](c1ccccc1)(c1ccccc1)c1ccccc1)Oc1ccc(-c2cc(=S)ss2)cc1.[Br-]` [AP39] was tested, and the “cell killing, agent alone” value ([1]; AP39 40 or 60 μM, thiolactate 10 mM, 24 hrs) was “able to kill lung cancer cells”, the “potency of low doses of Doxorubicin” value ([1]; combination with Doxorubicin 2.5 μM) was “able to increase the potency of low doses of Doxorubicin” and the Dox-mediated mitochondrial fusion ([2]; H9C2, AP39 with Dox) was “reversed after AP39 treatment”. For the same compound, the “mitochondrial H2S levels (AzMAC)” value ([2]; H9C2, single agent vs control) was “H2S production enhancement”, the “mitochondrial morphology (fission / fusion)” value ([2]; H9C2, single agent vs control) was “increased mitochondrial fission” and the “PARP and caspase 3 cleavage” value [3] was “significantly reduced PARP and caspase 3 cleavage”. The “stress signaling (activated ERK1/2 and p38 kinases)” value [3] was “reduced stress signaling”, the AMPK activation [4] was “potent AMPK activation” and the “Opa1 isoforms (Opa1-S, Opa1-L)” value [4] was “elevated amounts of the short form of Opa1 (Opa1-S) at the expense of long form (Opa1-L)”. The “heart weight decline seen during Dox treatment” value ([5]; AP39 higher dose 0.642 mg/kg, six consecutive days, single dose of Dox i.p.) was “effective in countering heart weight decline”, the “left ventricular dysfunction (echocardiography)” value ([5]; both doses of AP39, six consecutive days, single dose of Dox i.p.) was “effective in ameliorating left ventricular dysfunction” and the “Dox induced fibrosis and cell infiltration (histological sections)” value ([5]; higher AP39 dose) was “prevented Dox induced fibrosis and cell infiltration”. The “cardiac pathology (fibrosis, cell infiltration)” value ([5]; lower AP39 dose) was “not cardiac pathology”.
